Patent publication US9624269B2, “Peptide inhibitors of BACE1” (GENENTECH, INC., priority 2011, dated 2017)
Positions of bridges follow the written chain, without caps; N, C: chain ends. Residues, ends and D or L forms follow the SMILES beside them.

Key:
rhBACE2 = rhBACE2 (Homo sapiens, UniProt Q9Y5Z0); assay: BACE2 activity assay (microfluidic capillary electrophoresis); assay type: biochemical; details: 5 nM rhBACE2
Procedure: (§1) BACE1, BACE2 and Cathepsin D Activity Assay Using Microfluidic Capillary Electrophoresis (MCE).
(§2) BACE1, BACE2, and Cathepsin D reactions were carried out in a final volume of 20 μl per well in a 384-well microplate using a Caliper LabChip 3000 (Hopkinton, Mass.). A standard enzymatic reaction, initiated by the addition of 10 μ12× substrate to 5 μl of 4× enzyme and 5 μl of 4× peptide or small molecule inhibitor, contained 12 nM rhBACE1, 1 μM FAM-[…]-amide (SEQ ID NO: 20), 50 mM NaOAc, pH 4.4, 0.1% CHAPS. The same reaction conditions were used for rhBACE2 (5 nM) and Cathepsin D (6 nM) (Cat. No. 219394; EMD Biosciences, San Diego, Calif.). After incubation for 60 min at room temperature, the product and substrate in each reaction were separated using a 12-sipper microfluidic chip. Separation of product and substrate was optimized by choosing voltages and pressure using the Caliper Optimizer software. The separation buffer contained 100 mM HEPES, pH 7.2, 0.015% Brij-35, 0.1% Coating Reagent #3, 10 mM EDTA and 5% DMSO. The separation conditions used a downstream voltage of −500 V, an upstream voltage of −2250 V, and a screening pressure of −1.2 psi. The product and substrate fluorescence was excited at 488 nm and detected at 530 nm. Substrate conversion was calculated from the electrophoregram using the Caliper HTS Well Analyzer software.

Cathepsin D = molecular target: T1, Cathepsin D (Homo sapiens, UniProt P07339); assay: Cathepsin D activity assay (microfluidic capillary electrophoresis); assay type: biochemical; details: 6 nM Cathepsin D
T1 construct: purchased EMD Biosciences, San Diego, Calif; 219394
Procedure: as §1, §2

[1] = tested on: Aβ1-40 production in 293-hAPP cells; assay: Aβ1-40 assay in 293-hAPP cells; assay type: cell-based, human; details: 293-HEK cells stably transfected with APP, 24 h
Procedure: Aβ1-40 Assay in 293-hAPP Cells.
Aβ1-40 production was measured in 293-HEK cells stably expressing wild-type human APP(695) complementary DNA (cDNA) (293-hAPP). Cells were seeded overnight at 3×10^4 cells per well in a 96-well plate. Fresh media [Dulbecco's modified Eagle's medium (DMEM)+10% fetal bovine serum (FBS)] containing various inhibitors were incubated with the 293-hAPP cells for 24 h. The cellular medium was harvested and assayed for the presence of Aβ1-40 with an Aβ1-40 HTRF assay (CisBio) according to the manufacturer's instructions. Aβ1-40 values were normalized for cell viability, as determined with the CellTiter-Glo Luminescent Cell Viability Assay (Promega). Experiments were performed at least 3 times, and each point in each experiment was repeated in duplicate. Data was plotted with a 4-parameter nonlinear regression curve-fitting program (KaleidaGraph, Synergy Software).

human BACE1 (rhBACE1) = human BACE1 (rhBACE1) (Homo sapiens, UniProt P56817); assay: Caliper BACE1 activity assay (microfluidic capillary electrophoresis); assay type: biochemical; parameters: containing human BACE1 (extracellular domain)
Procedure: An MCE assay reactions can be carried out in a standard enzymatic reaction, initiated by the addition of substrate to enzyme and 4× compound, containing human BACE1 (extracellular domain), amyloid precursor protein beta secretase active site peptide (FAM-[…]-CONH2 (SEQ ID NO: 20)), 50 mM NaOAc pH 4.4 and 0.1% CHAPS. After incubation for 60 minutes at ambient temperature, the product and substrate in each reaction is separated using a 12-sipper microfluidic chip analyzed on an LC3000® (both, Caliper Life Sciences). The separation of product and substrate is optimized by choosing voltages and pressure using the manufacturer's optimization software. Substrate conversion is calculated from the electrophoregram using HTS Well Analyzer software (Caliper Life Sciences).
as §1, §2

human BACE1 (rhBACE1), sequence (P56817 46-457 limits assumed): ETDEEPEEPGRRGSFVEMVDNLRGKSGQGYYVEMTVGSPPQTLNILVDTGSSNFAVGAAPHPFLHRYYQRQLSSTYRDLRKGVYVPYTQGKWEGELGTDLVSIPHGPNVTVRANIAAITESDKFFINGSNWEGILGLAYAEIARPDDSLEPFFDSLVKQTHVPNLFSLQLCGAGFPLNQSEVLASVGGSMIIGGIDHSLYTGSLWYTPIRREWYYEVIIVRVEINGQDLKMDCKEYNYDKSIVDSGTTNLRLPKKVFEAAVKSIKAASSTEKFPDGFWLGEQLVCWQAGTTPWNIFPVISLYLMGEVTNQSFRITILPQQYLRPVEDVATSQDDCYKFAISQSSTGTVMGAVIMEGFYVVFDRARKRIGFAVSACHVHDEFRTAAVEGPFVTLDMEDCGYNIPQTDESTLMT
rhBACE2, sequence (Q9Y5Z0 63-518): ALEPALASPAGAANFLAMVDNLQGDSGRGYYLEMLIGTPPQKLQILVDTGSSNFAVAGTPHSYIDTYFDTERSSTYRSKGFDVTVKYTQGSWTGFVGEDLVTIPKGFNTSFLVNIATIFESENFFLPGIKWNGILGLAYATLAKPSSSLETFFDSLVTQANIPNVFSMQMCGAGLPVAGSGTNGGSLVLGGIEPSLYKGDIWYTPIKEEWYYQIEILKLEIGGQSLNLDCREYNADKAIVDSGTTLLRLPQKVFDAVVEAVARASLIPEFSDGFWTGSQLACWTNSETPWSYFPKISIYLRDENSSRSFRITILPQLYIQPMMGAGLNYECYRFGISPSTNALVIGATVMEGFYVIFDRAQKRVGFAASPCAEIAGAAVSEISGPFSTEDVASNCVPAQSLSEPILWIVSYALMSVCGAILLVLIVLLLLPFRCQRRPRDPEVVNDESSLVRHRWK
T1 sequence (P07339 65-412, species assumed): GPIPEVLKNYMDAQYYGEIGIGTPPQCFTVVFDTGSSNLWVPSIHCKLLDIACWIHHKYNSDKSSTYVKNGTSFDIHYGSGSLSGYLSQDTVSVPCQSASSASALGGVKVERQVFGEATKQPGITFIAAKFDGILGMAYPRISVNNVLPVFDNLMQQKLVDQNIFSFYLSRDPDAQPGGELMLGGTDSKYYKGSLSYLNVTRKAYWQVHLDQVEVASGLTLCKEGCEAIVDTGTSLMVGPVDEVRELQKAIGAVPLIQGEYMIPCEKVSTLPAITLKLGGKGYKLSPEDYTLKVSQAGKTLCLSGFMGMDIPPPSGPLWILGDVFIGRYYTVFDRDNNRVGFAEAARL

Inhibition of BACE2 (rhBACE2): no inhibition
Inhibition of Cathepsin D (Cathepsin D): no inhibition
IC50 (human BACE1 (rhBACE1); 12 nM rhBACE1, 1 μM FAM-substrate, pH 4.4): 18 ± 7 nM
peptide activity (in words) (human BACE1 (rhBACE1); competition binding and enzymatic assays): full activity
SMILES: CC[C@H](C)[C@@H]1NC(=O)CNC(=O)[C@H](CC(C)C)NC(=O)[C@H](CC(C)C)NC(=O)[C@H](CCCNC(=N)N)NC(=O)[C@@H](NC(=O)[C@H](Cc2ccc(O)cc2)NC(=O)[C@H](CCSC)NC(=O)[C@H](CO)NC(=O)[C@H](CCC(=O)O)NC(C)=O)CSSC[C@@H](C(=O)NCC(N)=O)NC(=O)CNC1=O [BACE030] (Ac-ESMYCRLLGIGCG-NH2; disulfide 5-12)
Inhibition of Aβ production in cells (in words) [1]: potent inhibition
